Reference: ChEMBL document CHEMBL5055663, “Histamine H3 receptor antagonists with peptidomimetic (keto)piperazine structures to inhibit Aβ oligomerisation” (Bioorg Med Chem, 2021)
Activity calls are given as the source filed them. The rule behind the calls is not given here.

Experiments:
[1] = target: T1, Amyloid-beta precursor protein (Homo sapiens, UniProt P05067); assay: Binding affinity to CM-5 sensor chip immobilized beta-amyloid monomer (1 to 42) (unknown origin) at 200 uM by SPR analysis
Histamine H3 receptor [2] = target: T2, Histamine H3 receptor (Homo sapiens, UniProt Q9Y5N1); assay: Displacement of [3H]Nalpha-methylhistamine from recombinant human histamine H3 receptor expressed in HEK293 cells incubated for 90 mins by competition binding assay; format: cell-based
[3] = target: T1, Amyloid-beta precursor protein; assay: Binding affinity to CM-5 sensor chip immobilized beta-amyloid monomer (1 to 42) (unknown origin) assessed as dissociation constant by SPR analysis
Histamine H3 receptor [4] = target: T2, Histamine H3 receptor; assay: Antagonist activity at histamine H3 receptor (unknown origin)

T2 sequence (Q9Y5N1 whole entry): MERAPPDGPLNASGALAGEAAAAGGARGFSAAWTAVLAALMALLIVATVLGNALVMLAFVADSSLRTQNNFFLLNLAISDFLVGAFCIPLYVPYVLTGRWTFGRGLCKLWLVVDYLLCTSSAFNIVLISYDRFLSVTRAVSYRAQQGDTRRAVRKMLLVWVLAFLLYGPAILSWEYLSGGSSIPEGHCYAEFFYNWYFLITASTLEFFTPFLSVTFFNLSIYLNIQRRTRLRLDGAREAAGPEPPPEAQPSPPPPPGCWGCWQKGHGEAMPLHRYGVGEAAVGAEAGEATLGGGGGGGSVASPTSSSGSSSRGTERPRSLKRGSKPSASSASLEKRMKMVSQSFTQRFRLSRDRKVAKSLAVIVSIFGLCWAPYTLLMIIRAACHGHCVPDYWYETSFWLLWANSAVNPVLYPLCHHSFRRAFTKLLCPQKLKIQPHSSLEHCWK
T1 sequence (P05067 whole entry): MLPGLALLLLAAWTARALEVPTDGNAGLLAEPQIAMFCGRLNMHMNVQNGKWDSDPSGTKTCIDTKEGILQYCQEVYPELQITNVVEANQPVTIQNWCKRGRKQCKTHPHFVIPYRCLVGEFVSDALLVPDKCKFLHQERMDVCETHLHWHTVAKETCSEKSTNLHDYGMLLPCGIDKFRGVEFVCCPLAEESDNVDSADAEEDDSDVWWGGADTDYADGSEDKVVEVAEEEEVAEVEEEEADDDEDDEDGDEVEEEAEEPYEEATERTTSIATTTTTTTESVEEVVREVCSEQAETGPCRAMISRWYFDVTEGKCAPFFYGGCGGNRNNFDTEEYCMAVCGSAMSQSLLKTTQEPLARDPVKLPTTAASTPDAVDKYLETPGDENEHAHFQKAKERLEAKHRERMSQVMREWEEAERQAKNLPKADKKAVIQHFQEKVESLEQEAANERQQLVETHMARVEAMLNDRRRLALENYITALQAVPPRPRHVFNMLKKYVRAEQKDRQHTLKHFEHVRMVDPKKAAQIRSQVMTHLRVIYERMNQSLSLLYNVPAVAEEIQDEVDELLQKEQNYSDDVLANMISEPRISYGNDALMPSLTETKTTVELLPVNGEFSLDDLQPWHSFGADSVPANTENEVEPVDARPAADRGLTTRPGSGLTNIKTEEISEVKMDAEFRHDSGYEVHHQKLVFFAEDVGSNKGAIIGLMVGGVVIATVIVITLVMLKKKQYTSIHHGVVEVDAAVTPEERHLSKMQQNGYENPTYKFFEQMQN

Compound	Activity [1]	Ki (Histamine H3 receptor [2]) [µM]	Kd [3] [µM]	Ki (Histamine H3 receptor [4]) [µM]
O=C1CNC(=O)[C@@H](Cc2ccc(OCCCN3CCCCC3)cc2)N1	inactive	0.158		
O=C1CN(Cc2ccc(OCCCN3CCCCC3)cc2)C(=O)CN1		0.0049	1550	
C[C@@H]1NC(=O)[C@H](Cc2ccc(OCCCN3CCCCC3)cc2)NC1=O	inactive	0.159		
O=C1CN(Cc2ccc(OCCCN3CCCCC3)cc2)CCN1Cc1ccccc1		0.0113	51.6	
O=c1[nH]/c(=C\c2ccc(OCCCN3CCCCC3)cc2)c(=O)[nH]/c1=C\c1ccccc1	inactive	0.0038		
CC(=O)N1CC(=O)N/C(=C\c2ccc(OCCCN3CCCCC3)cc2)C1=O	inactive	0.0038		
O=C1N[C@@H](Cc2ccc(OCCCN3CCCCC3)cc2)C(=O)N[C@H]1Cc1ccccc1	inactive	0.039	12000	

Further lines, results first:

Activity [1]	Ki (Histamine H3 receptor [2]) [µM]	Kd [3] [µM]	Ki (Histamine H3 receptor [4]) [µM]	Compound
inactive	0.002			O=C1N[C@@H](Cc2ccccc2)C(=O)N/C1=C\c1ccc(OCCCN2CCCCC2)cc1 (stereo in doubt)
inactive	0.219			CC(C)[C@@H]1NC(=O)[C@H](Cc2ccc(OCCCN3CCCCC3)cc2)NC1=O
	0.0028			O=C1CN(C(=O)c2ccc(OCCCN3CCCCC3)cc2)CCN1
inactive	0.0044			CC(=O)N1C(=O)/C(=C/c2ccc(OCCCN3CCCCC3)cc2)NC(=O)[C@@H]1Cc1ccccc1
inactive	0.074			O=C1CNC(=O)[C@H](Cc2ccc(OCCCN3CCCCC3)cc2)N1
			0.002	CN1C[C@H]2CCN(c3ccc(-c4ccc(-n5ncccc5=O)cc4)cc3)[C@H]2C1
	0.0049			O=C1CN(C(=O)c2ccc(OCCCN3CCCCC3)cc2)CCN1Cc1ccccc1
inactive	0.0223			O=C1CNC(=O)/C(=C/c2ccc(OCCCN3CCCCC3)cc2)N1
inactive	0.002			c1cc(OCCCN2CCCCC2)ccc1C[C@H]1CNCCN1
inactive	0.0011			c1ccc(C[C@H]2CN[C@@H](Cc3ccc(OCCCN4CCCCC4)cc3)CN2)cc1
